Measured values published in patent US20150315188A1, “COMPOUNDS AND METHODS FOR TREATMENT OF HYPERTENSION” (MEDIVATION TECHNOLOGIES, INC., priority 2012, published 2015).

Legend:
Design in all cases: purchased Milipore (Millipore)
[1] = molecular target: T1, Human adrenergic α2B receptor (Homo sapiens, UniProt P18089); test: Radioligand binding, adrenergic α2B (Protocol Group B); details: Protocol Group B; for Percentage inhibition of ligand binding, Adrenergic α2B (10 nM) / inhibition at 0.01 µM: 10 nM compound; for Percentage inhibition of ligand binding, Adrenergic α2B (10 nM): 0.01 µM; for Percentage inhibition of ligand binding, Adrenergic α2B (30 nM) / inhibition at 0.03 µM: 30 nM compound; for Percentage inhibition of ligand binding, Adrenergic α2B (30 nM): 0.03 µM; for Percentage inhibition of ligand binding, Adrenergic α2B (0.1 μM) / inhibition at 0.1 µM: 0.1 μM compound; for Ki: estimated Ki, read-out: Ki α2B; for inhibition at 0.01 µM: read-out: Percentage inhibition of ligand binding, Adrenergic α2B (10 nM); for inhibition at 0.03 µM: read-out: Percentage inhibition of ligand binding, Adrenergic α2B (30 nM); for inhibition at 0.1 µM: read-out: Percentage inhibition of ligand binding, Adrenergic α2B (0.1 μM)
T1 sequence (P18089 1-450): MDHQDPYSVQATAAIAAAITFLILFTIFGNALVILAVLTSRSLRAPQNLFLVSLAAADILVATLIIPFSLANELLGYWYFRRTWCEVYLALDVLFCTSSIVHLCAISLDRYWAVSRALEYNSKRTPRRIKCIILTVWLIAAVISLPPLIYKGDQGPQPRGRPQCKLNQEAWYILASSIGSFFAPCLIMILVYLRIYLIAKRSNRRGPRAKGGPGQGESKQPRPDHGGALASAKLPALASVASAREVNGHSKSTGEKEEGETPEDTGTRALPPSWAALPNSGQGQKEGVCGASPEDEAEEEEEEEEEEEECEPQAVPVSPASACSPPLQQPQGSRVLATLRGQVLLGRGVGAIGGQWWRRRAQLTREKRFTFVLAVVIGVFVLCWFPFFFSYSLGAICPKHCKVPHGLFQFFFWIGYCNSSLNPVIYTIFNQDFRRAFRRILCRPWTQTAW
Summary of the method: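 Recombinant human α2B receptor membranes incubated with compounds in 50 mM Tris-HCl pH 7.4, 5 mM MgCl2, 1 mM CaCl2, 0.2% BSA, 1% DMSO vehicle. Non-specific binding defined with 10 μM rauwolscine. Values are percent inhibition of specific binding or estimated Ki.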

[2] = molecular target: T2, Human adrenergic α2A receptor (Homo sapiens, UniProt P08913); test: Radioligand binding, adrenergic α2A (Protocol Group B); details: Protocol Group B; for Percentage inhibition of ligand binding, Adrenergic α2A (0.1 μM) / inhibition at 0.1 µM: 0.1 μM compound; for Percentage inhibition of ligand binding, Adrenergic α2A (0.3 μM) / inhibition at 0.3 µM: 0.3 μM compound; for Ki: estimated Ki; for inhibition at 0.1 µM: read-out: Percentage inhibition of ligand binding, Adrenergic α2A (0.1 μM); for inhibition at 0.3 µM: read-out: Percentage inhibition of ligand binding, Adrenergic α2A (0.3 μM)
T2 sequence (P08913 1-465): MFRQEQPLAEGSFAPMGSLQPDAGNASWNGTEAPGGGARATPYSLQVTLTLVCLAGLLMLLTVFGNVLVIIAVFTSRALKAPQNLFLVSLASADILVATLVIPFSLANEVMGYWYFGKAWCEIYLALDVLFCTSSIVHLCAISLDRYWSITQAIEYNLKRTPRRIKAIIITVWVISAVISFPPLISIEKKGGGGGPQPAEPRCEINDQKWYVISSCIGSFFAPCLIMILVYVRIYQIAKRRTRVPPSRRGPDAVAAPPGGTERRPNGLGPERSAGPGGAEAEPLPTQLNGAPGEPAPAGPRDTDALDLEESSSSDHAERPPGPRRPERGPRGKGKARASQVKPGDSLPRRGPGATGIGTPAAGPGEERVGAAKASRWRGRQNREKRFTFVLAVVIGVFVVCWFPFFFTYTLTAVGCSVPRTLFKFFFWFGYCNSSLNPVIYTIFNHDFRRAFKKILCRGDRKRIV
Summary of the method: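 Membranes from recombinant cells expressing the receptor, in 50 mM Tris-HCl pH 7.4 with 5 mM MgCl2, 1 mM CaCl2, 0.2% BSA; compounds incubated with 2 nM [^3H]MK-912 for 60 min at 25° C. Nonspecific binding defined by 10 μM rauwolscine; filtration, counting; percent inhibition of specific binding, or estimated Ki.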

[3] = molecular target: T3, Human adrenergic α1B receptor (Homo sapiens, UniProt P35368); test: Radioligand binding, adrenergic α1B (Protocol Group B); details: Protocol Group B; for Percentage inhibition of ligand binding, Adrenergic α1B (0.1 μM) / inhibition at 0.1 µM: 0.1 μM compound; for Percentage inhibition of ligand binding, Adrenergic α1B (0.3 μM) / inhibition at 0.3 µM: 0.3 μM compound; for Ki: estimated Ki; for inhibition at 0.1 µM: read-out: Percentage inhibition of ligand binding, Adrenergic α1B (0.1 μM); for inhibition at 0.3 µM: read-out: Percentage inhibition of ligand binding, Adrenergic α1B (0.3 μM)
T3 sequence (P35368 1-520): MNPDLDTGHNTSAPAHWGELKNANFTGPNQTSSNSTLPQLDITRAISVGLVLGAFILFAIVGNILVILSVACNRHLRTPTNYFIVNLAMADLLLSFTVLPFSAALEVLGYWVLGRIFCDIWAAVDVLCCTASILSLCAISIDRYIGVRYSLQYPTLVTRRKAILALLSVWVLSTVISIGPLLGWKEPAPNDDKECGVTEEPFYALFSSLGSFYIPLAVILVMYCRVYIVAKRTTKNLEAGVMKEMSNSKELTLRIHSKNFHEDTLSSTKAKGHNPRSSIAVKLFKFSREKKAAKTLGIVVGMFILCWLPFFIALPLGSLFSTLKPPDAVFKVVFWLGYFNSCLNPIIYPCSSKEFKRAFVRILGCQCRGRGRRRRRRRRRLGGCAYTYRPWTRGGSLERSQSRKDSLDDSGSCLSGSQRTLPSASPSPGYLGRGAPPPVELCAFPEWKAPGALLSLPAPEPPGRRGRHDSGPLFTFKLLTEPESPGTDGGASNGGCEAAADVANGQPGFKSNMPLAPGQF
Summary of the method: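 Recombinant human α1B membranes incubated with test compound and 0.3 nM [3H]prazosin, 60 min at 25 °C, in 50 mM Tris-HCl pH 7.4, 10 mM MgCl2, 1 mM EDTA; nonspecific binding with 10 μM prazosin. Filter-bound radioactivity counted; values are % inhibition of specific binding or estimated Ki.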

| SMILES | Percentage inhibition of ligand binding, Adrenergic α2B (10 nM) [1] [%] | Percentage inhibition of ligand binding, Adrenergic α2B (30 nM) [1] [%] | Percentage inhibition of ligand binding, Adrenergic α2B (0.1 μM) ([1]; 0.1 µM) [%] | Ki [1] [nM] | Percentage inhibition of ligand binding, Adrenergic α2A (0.1 μM) [2] [%] | Percentage inhibition of ligand binding, Adrenergic α2A (0.3 μM) [2] [%] | Ki [2] [nM] | Percentage inhibition of ligand binding, Adrenergic α1B (0.1 μM) [3] [%] | Percentage inhibition of ligand binding, Adrenergic α1B (0.3 μM) [3] [%] | Ki [3] [nM] | inhibition at 0.01 µM [1] [%] | inhibition at 0.03 µM [1] [%] | inhibition at 0.1 µM [1] [%] | inhibition at 0.1 µM [2] [%] | inhibition at 0.3 µM [2] [%] | inhibition at 0.1 µM [3] [%] | inhibition at 0.3 µM [3] [%] | Percentage inhibition of ligand binding, Adrenergic α2B (0.1 μM) [1] [%] |
| --- | --- | --- | --- | --- | --- | --- | --- | --- | --- | --- | --- | --- | --- | --- | --- | --- | --- | --- |
| Cc1ccc2c(c1)c1c(n2CC(C)(O)c2ccnc(F)c2)CCN2CCCC12 (single isomer, unassigned) [48a] |  |  |  | 1.25 |  |  | 31.1 |  |  | 8.15 | 93 | 94 | 94 | 73 | 82 | 85 | 94 |  |
| Cc1ccc2c(c1)c1c(n2CC(C)(O)c2ccnc(F)c2)CCN2CCCC12 (single isomer, unassigned) [48b] | 92 | 93 | 91 | 0.89 | 83 | 87 | 16.4 | 71 | 84 | 25.9 |  |  |  |  |  |  |  |  |
| CC(O)(Cn1c2c(c3cc(Cl)cc(F)c31)C1CCCN1CC2)c1ccncc1 (single isomer, unassigned) [52a] |  |  |  | 0.84 |  |  | 13 | 75 |  | 11.4 | 99 | 100 | 101 | 80 | 89 |  | 90 |  |
| Cc1ccc2c(c1)c1c(n2CC(OCC2CCC2)c2ccncc2)CCN(C)C1 (single isomer, unassigned) [59a] |  |  |  | 1 |  |  | 10 |  |  | 16 | 93 | 98 | 100 | 84 | 91 | 69 | 91 |  |

These reach a lower Ki [1]. Values come first.

| Percentage inhibition of ligand binding, Adrenergic α2B (10 nM) [1] [%] | Percentage inhibition of ligand binding, Adrenergic α2B (30 nM) [1] [%] | Percentage inhibition of ligand binding, Adrenergic α2B (0.1 μM) ([1]; 0.1 µM) [%] | Ki [1] [nM] | Percentage inhibition of ligand binding, Adrenergic α2A (0.1 μM) [2] [%] | Percentage inhibition of ligand binding, Adrenergic α2A (0.3 μM) [2] [%] | Ki [2] [nM] | Percentage inhibition of ligand binding, Adrenergic α1B (0.1 μM) [3] [%] | Percentage inhibition of ligand binding, Adrenergic α1B (0.3 μM) [3] [%] | Ki [3] [nM] | inhibition at 0.01 µM [1] [%] | inhibition at 0.03 µM [1] [%] | inhibition at 0.1 µM [1] [%] | inhibition at 0.1 µM [2] [%] | inhibition at 0.3 µM [2] [%] | inhibition at 0.1 µM [3] [%] | inhibition at 0.3 µM [3] [%] | Percentage inhibition of ligand binding, Adrenergic α2B (0.1 μM) [1] [%] | SMILES |
| --- | --- | --- | --- | --- | --- | --- | --- | --- | --- | --- | --- | --- | --- | --- | --- | --- | --- | --- |
| 98 | 98 | 100 | 0.81 | 89 | 98 | 6.2 | 69 | 85 | 14 |  |  |  |  |  |  |  |  | Cc1cc(C)c2c(c1)c1c(n2CC(C)(O)c2cccnc2)CCN2CCCC12 (single isomer, unassigned) [44b] |
|  |  |  | 0.75 |  |  | 6.7 |  |  | 3.7 | 95 | 99 | 100 | 72 | 83 | 89 | 96 |  | Cc1cc2c3c(n(CC(C)(O)c4ccncc4)c2cc1Cl)CCN1CCCC31 (single isomer, unassigned) [50a] |
| 98 | 100 |  | 0.75 | 73 | 86 | 5.69 | 80 | 93 | 6.9 |  |  |  |  |  |  |  | 100 | Cc1cc2c3c(n(CC(C)(O)c4ccncc4)c2cc1Cl)CCN1CCCC31 (single isomer, unassigned) [50b] |
| 94 | 96 | 99 | 0.71 | 72 | 78 | 21.7 | 35 | 73 | 39.8 |  |  |  |  |  |  |  |  | CC(O)(Cn1c2c(c3cc(Cl)cc(F)c31)C1CCCN1CC2)c1ccncc1 (single isomer, unassigned) [52b] |
